One test has as its target T1, TRβ (Homo sapiens, UniProt P10828).
T1 construct: expressed in transfected cells; host or cells: HEK293-derived reporter cell line
T1 sequence (P10828 217-461 limits assumed): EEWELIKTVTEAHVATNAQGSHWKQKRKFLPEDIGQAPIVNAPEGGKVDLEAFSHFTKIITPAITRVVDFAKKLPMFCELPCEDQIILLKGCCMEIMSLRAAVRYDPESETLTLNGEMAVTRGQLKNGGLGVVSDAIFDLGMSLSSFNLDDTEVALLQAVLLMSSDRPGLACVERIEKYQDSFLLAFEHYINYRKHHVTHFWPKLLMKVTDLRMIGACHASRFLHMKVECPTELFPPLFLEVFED
The test is described as follows: Thyroid-hormone reporter-gene assay, TRβ (Gal4 hybrid, luciferase). It is filed as cell-based. To be noted: for EC50: HEK293-derived reporter cells, 24 hr treatment, luciferase readout; for T3-SI, selectivity index (SI) calculated as EC50 (TRα)/EC50 (TRβ): TRα vs TRβ reporter-gene assays. The method, then:
(§1) Compounds were tested for thyroid-hormone receptor activity using TR reporter-gene assays. Reporter cells used in the assays express a TR-receptor hybrid (either TRα or TRO) in which the native N-terminal DNA binding domain (DBD) has been replaced with that of the yeast Gal4 DBD. The reporter gene, firefly luciferase, is functionally linked to the Gal4 upstream activation sequence (UAS). Both cell lines were derived from human embryonic kidney (HEK293).
(§2) Step 1: A suspension of reporter cells was prepared in cell recovery medium containing 10% charcoal-stripped FBS, and dispensed into assay plates. The plates were pre-incubated for 6 hours in a cell culture incubator (37° C./5% CO2/85% humidity).
(§3) These intermediate stocks were subsequently diluted directly into compound screening medium containing 10% charcoal-stripped FBS to generate “2×-concentration” treatment media (containing 0.2, 0.4 or 0.8% DMSO).
(§4) Step 3: At the end of the pre-incubation period, culture media were discarded from the assay plates, and all wells received 100 μl of compound screening medium. 100 μl of each of the previously prepared “2×-concentration” treatment media were dispensed into duplicate assay wells, thereby achieving the desired final treatment concentrations. The final concentration of DMSO in all assay wells was 0.1, 0.2 or 0.4%. Assay plates were incubated for 24 hr in a cell culture incubator (37° C./5% CO2/85% humidity).
(§5) Step 4: At the 24 h assay endpoint, treatment media were discarded and 100 µl/well of luciferase detection reagent was added. Relative luminometer units (RLUs) were quantified from each assay well.

A further test addresses T2, TRα (Homo sapiens, UniProt P10827).
T2 construct: expressed in transfected cells; host or cells: HEK293-derived reporter cell line
T2 sequence (P10827 128-410 isoform P10827-2 limits assumed): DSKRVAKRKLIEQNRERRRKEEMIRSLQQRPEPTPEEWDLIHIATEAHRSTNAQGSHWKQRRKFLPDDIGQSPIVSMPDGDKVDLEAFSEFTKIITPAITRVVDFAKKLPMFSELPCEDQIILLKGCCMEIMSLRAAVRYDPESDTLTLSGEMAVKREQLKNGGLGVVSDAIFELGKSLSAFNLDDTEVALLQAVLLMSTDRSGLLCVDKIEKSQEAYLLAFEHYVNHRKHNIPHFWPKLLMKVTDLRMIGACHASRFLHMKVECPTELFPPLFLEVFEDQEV
The test is described as follows: Thyroid-hormone reporter-gene assay, TRα (Gal4 hybrid, luciferase). It is filed as cell-based. The settings on record: HEK293-derived reporter cells, 24 hr treatment, luciferase readout. As to the method:
as §1, §2, §3, §4, §5

Where only a bound is given, the exact number is not on record here.

On to `CC(C)c1c(O)ccc(Cc2ccc(OCC(=O)O)c3c2CCC3)c1F` [Compound 2, 2-((7-(2-fluoro-4-hydroxy-3-isopropylbenzyl)-2,3-dihydro-1H-inden-4-yl)oxy)acetic acid], for which the results for the EC50 at TRβ and at TRα were 0.1 to 1 µM and over 1 µM, respectively. Moreover, the “T3-SI, selectivity index (SI) calculated as EC50 (TRα)/EC50 (TRβ)” value (shortened to “T3-SI, selectivity index (SI) calculated”) at TRβ is reported as “++ (++3X<T3−SI≤30X)”.
`CC(C)c1c(O)ccc(Cc2ccc(OCC(=O)O)c3c2C(C)CC3)c1F` (centres unmarked) [Compound 4, 2-((7-(2-fluoro-4-hydroxy-3-isopropylbenzyl)-1-methyl-2,3-dihydro-1H-inden-4-yl)oxy)acetic acid]: the EC50 on TRβ and on TRα was over 1 µM throughout.
As for `Cc1cc(OCC(=O)O)c2c(c1Cc1ccc(O)c(C(C)C)c1)CCC2` [Compound 6, 2-((7-(4-hydroxy-3-isopropylbenzyl)-6-methyl-2,3-dihydro-1H-inden-4-yl)oxy)acetic acid], the EC50 is 0.01 to 0.1 µM at TRβ and 0.1 to 1 µM at TRα. In addition, the “T3-SI, selectivity index (SI) calculated” value at TRβ is recorded as “++ (++3X<T3−SI≤30X)”.
For `Cc1cc(OCC(=O)O)c2c(c1Cc1ccc(O)c(C(C)c3ccc(F)cc3)c1)CCC2` (centres unmarked) [Compound 8, 2-((7-(3-(1-(4-fluorophenyl)ethyl)-4-hydroxybenzyl)-6-methyl-2,3-dihydro-1H-inden-4-yl)oxy)acetic acid] the same measures were under 0.01 µM, 0.01 to 0.1 µM and “++ (++3X<T3−SI≤30X)”.
For `Cc1cc(OCC(=O)O)c2c(c1Cc1ccc(O)c(C(C)C)c1F)CCC2` [Compound 10, 2-((7-(2-fluoro-4-hydroxy-3-isopropylbenzyl)-6-methyl-2,3-dihydro-1H-inden-4-yl)oxy)acetic acid], the concentration for a half-maximal effect (EC50) is under 0.01 µM at TRβ and 0.01 to 0.1 µM on TRα. Besides, the “T3-SI, selectivity index (SI) calculated” value at TRβ is on record as “++ (++3X<T3−SI≤30X)”.
As to `CC(C)c1cc(Cc2ccc(OCC(=O)O)c3ccccc23)ccc1O` [Compound 14, 2-((4-(4-hydroxy-3-isopropylbenzyl)naphthalen-1-yl)oxy)acetic acid], on TRβ, the EC50 was 0.1 to 1 µM and the “T3-SI, selectivity index (SI) calculated” value is “++ (++3X<T3−SI≤30X)”. This molecule came in with an EC50 at TRα of over 1 µM.
For `CC(C)c1cc(Cc2cc(F)c(OCC(=O)O)c3c2CCC3)ccc1O` [Compound 16, 2-((5-fluoro-7-(4-hydroxy-3-isopropylbenzyl)-2,3-dihydro-1H-inden-4-yl)oxy)acetic acid] the same measures were over 1 µM, “++ (++3X<T3−SI≤30X)” and over 1 µM.
For `CC(C)c1cc(Cc2cc(F)c(OCC(=O)O)cc2C(F)(F)F)ccc1O` [Compound 18, 2-(2-fluoro-4-(4-hydroxy-3-isopropylbenzyl)-5-(trifluoromethyl)phenoxy)acetic acid] the same measures were over 1 µM, “+ (+T3−SI≤3X)” and over 1 µM.
`CC(C)c1c(O)ccc(Cc2ccc(OCC(=O)O)cc2Cl)c1F` [Compound 20, 2-(3-chloro-4-(2-fluoro-4-hydroxy-3-isopropylbenzyl)phenoxy)acetic acid]: the figures for the EC50 at TRβ and on TRα were 0.1 to 1 µM and over 1 µM, respectively. Also, the “T3-SI, selectivity index (SI) calculated” value at TRβ is “++ (++3X<T3−SI≤30X)”.
For `C=C(C)c1cc(OCC(=O)O)ccc1Cc1ccc(O)c(C(C)C)c1F` [Compound 23, 2-(4-(2-fluoro-4-hydroxy-3-isopropylbenzyl)-3-(prop-1-en-2-yl)phenoxy)acetic acid] the same measures were 0.1 to 1 µM, over 1 µM and “++ (++3X<T3−SI≤30X)”.
For `CC(C)c1cc(OCC(=O)O)ccc1Cc1ccc(O)c(C(C)C)c1F` [Compound 25, 2-(4-(2-fluoro-4-hydroxy-3-isopropylbenzyl)-3-isopropylphenoxy)acetic acid] the same measures were 0.01 to 0.1 µM, 0.1 to 1 µM and “++ (++3X<T3−SI≤30X)”.
For `CC(C)c1c(O)ccc(Cc2ccc(OCC(=O)O)c(F)c2Cl)c1F` [Compound 27, 2-(3-chloro-2-fluoro-4-(2-fluoro-4-hydroxy-3-isopropylbenzyl)phenoxy)acetic acid], the 50% effective concentration (EC50) at TRβ and on TRα was over 1 µM in each case.
As for `CC(C)c1c(O)ccc(Cc2cc(F)c(OCC(=O)O)cc2Cl)c1F` [Compound 29, 2-(5-chloro-2-fluoro-4-(2-fluoro-4-hydroxy-3-isopropylbenzyl)phenoxy)acetic acid], at TRβ, the EC50 lay within 0.1 to 1 µM and the “T3-SI, selectivity index (SI) calculated” value is on record as “+++ (+++T3−SI>30X)”. The EC50 at TRα is over 1 µM.
For `CC(C)c1c(O)ccc(Cc2ccc(OCC(=O)O)c(F)c2C(C)C)c1F` [Compound 31, 2-(2-fluoro-4-(2-fluoro-4-hydroxy-3-isopropylbenzyl)-3-isopropylphenoxy)acetic acid] the same measures were over 1 µM, “++ (++3X<T3−SI≤30X)” and over 1 µM.
On to `CC(C)c1cc(Cc2cc(F)c(OCC(=O)O)cc2C(C)C)ccc1O` [Compound 36, 2-(2-fluoro-4-(4-hydroxy-3-isopropylbenzyl)-5-isopropylphenoxy)acetic acid], for which, on TRβ, the concentration for a half-maximal effect (EC50) lay within 0.1 to 1 µM and the “T3-SI, selectivity index (SI) calculated” value was “++ (++3X<T3−SI≤30X)”. At TRα, the EC50 lay within 0.1 to 1 µM.
Molecule `CC(C)c1cc(Cc2cc(F)c(OCC(=O)O)c(F)c2Cl)ccc1O` [Compound 38, 2-(3-chloro-2,6-difluoro-4-(4-hydroxy-3-isopropylbenzyl)phenoxy)acetic acid] gave an EC50 at TRβ of over 1 µM.

In general, EC50 refers to the midpoint of the concentration-response curve. High values mean weaker potency, low ones greater potency.

The values above are taken from patent US20230242473A1, “THYROMIMETICS” (Autobahn Therapeutics, Inc., priority 2020, published 2023).
